Experimental data: patent publication US8642629B2, “Naphthylacetic acids” (Hoffmann-La Roche Inc., priority 2008, dated 2014)

Target: T1, human CRTH2 (Homo sapiens, UniProt Q9Y5Y4)
T1 construct: expressed in transfected cells; host or cells: CHO-K1
T1 sequence (Q9Y5Y4 1-395): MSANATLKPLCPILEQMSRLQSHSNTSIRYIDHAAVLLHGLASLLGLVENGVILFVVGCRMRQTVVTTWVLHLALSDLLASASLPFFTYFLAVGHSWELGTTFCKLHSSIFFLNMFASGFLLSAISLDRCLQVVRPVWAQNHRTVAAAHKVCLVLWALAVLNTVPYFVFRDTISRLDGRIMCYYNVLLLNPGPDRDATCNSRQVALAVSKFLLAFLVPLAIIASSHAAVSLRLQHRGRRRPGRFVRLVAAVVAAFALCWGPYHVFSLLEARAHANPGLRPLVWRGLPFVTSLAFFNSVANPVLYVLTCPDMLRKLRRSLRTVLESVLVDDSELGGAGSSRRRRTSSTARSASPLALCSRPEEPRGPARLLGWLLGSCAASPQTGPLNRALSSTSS
Assay: Human CRTH2 Receptor Binding Assay (whole cell, [3H]ramatroban competition)
Details: CHO-K1 cells expressing human CRTH2 and G-alpha16; 20 nM [3H]ramatroban; 1 hour, room temperature
Excerpt: A whole cell receptor binding assay using [^3H]ramatroban as the competing radioactive ligand was employed to evaluate the compound binding activity to human CRTH2. The radioactive ligand [^3H]ramatroban was synthesized according to Sugimoto et. al. (Eur. J. Pharmacol. 524, 30-37, 2005) to a specific activity of 42 Ci/mmol.
A cell line stably expressing human CRTH2 was established by transfecting CHO-K1 cells with two mammalian expression vectors that harbored human CRTH2 and G-alpha16 cDNAs, respectively, using FuGene® 6 transfection reagent (from Roche). Stable clones expressing CRTH2 were selected by staining each clone with BM16 (BD Pharmingen™ from BD Biosciences, a division of Becton, Dickinson and Company), which is a rat monoclonal antibody to human CRTH2. The cells were maintained as monolayer cultures in Ham's F-12 medium containing 10% fetal bovine serum, 100 units/mL penicillin, 100 μg/mL streptomycin, 2 mM glutamine, 0.5 mg/mL G418 (geneticin) for CRTH2, and 0.2 mg/mL hygromycin-B (for G-alpha 16). For whole cell receptor binding assay, the monolayer cells were rinsed once with PBS (phosphate buffered saline), dissociated using ethylenediaminetetraacetate (Versene™ EDTA from Lonza Inc.), and suspended in PBS containing 10 mM MgCl2 and 0.06% BSA (bovine serum albumin) at 1.5×10^6 cells/mL.
The binding reactions (0.2 mL) were performed in 96-well plates at room temperature in PBS containing 1.5×10^5 cells, 10 mM MgCl2, 0.06% BSA, 20 nM [^3H]ramatroban, and test compound at various concentrations. After 1 hour of binding reactions, the cells were harvested on GF™/B filter microplates (microtiter plates with embedded glass fiber from PerkinElmer, Inc.) and washed 5 times with PBS using a Filtermate™ Harvester (a cell harvester that harvests and washes cells from microplates from PerkinElmer, Inc.). The radioactivities bound to the cells were determined using a microplate scintillation counter (TopCount® NXT, from PerkinElmer, Inc.) after adding 50 μL of Microscint™ 20 scintillation fluid (from PerkinElmer, Inc.) to each well of the filter plates. The radioactivity from non-specific binding was determined by replacing compound with 10 μM of 15(R)-15-methyl PGD2 (from Cayman Chemical Company) in the reaction mixtures. The radioactivity bound to the cells in the absence of compound (total binding) was determined by replacing compound with 0.25% of DMSO (dimethyl sulfoxide) in the reaction mixture. Specific binding data were obtained by subtracting the radioactivity of non-specific binding from each binding data.
The IC50 value is defined as the concentration of the tested compound that is required for 50% inhibition of total specific binding. In order to calculate the IC50 value, the percent inhibition data were determined for 7 concentrations for each compound. The percent inhibition for a compound at each concentration was calculated according to the following formula, [1−(specific binding in the presence of compound)/(total specific binding)]×100. The IC50 value was then obtained by fitting the percent inhibition data to a sigmoidal dose-response (4 parameter logistic) model in the XLfit® software Excel add-in program [from ID Business Solutions Ltd., model 205, where F(x)=(A+(B−A)/(1+((C/x)^D)))].

| Structure (SMILES) | IC50 [nM] |
| --- | --- |
| Cc1cc(S(C)(=O)=O)ccc1Oc1cc(CC(=O)O)cc2ccc(F)cc12 [Example 1-6, [6-fluoro-4-(4-methanesulfonyl-2-methyl-phenoxy)-naphthalen-2-yl]-acetic acid] | 7.1 |
| CCS(=O)(=O)c1ccc(Oc2cc(CC(=O)O)cc3ccc(C(F)(F)F)cc23)cc1 [Example 1-17, [4-(4-Ethanesulfonyl-phenoxy)-6-trifluoromethyl-naphthalen-2-yl]-acetic acid] | 10.5 |
| CCS(=O)(=O)c1ccc(Oc2c(C3CC3)c(CC(=O)O)cc3ccc(F)cc23)nc1 [Example 18-1, [3-Cyclopropyl-4-(5-ethanesulfonyl-pyridin-2-yloxy)-6-fluoro-naphthalen-2-yl]-acetic acid] | 6.7 |
| CCS(=O)(=O)c1ccc(Oc2cc(CC(=O)O)cc3cc(OC)c(OC)cc23)cc1 [Example 1-23, [4-(4-Ethanesulfonyl-phenoxy)-6,7-dimethoxy-naphthalen-2-yl]-acetic acid] | 97.3 |
| CCS(=O)(=O)c1ccc(Oc2cc(CC(=O)O)cc3ccc(F)cc23)nc1 [Example 1-11, [4-(5-ethanesulfonyl-pyridin-2-yloxy)-6-fluoro-naphthalen-2-yl]-acetic acid] | 5.6 |
| CCS(=O)(=O)c1ccc(Oc2cc(CC(=O)O)cc3ccc(C#N)cc23)nc1 [Example 14-1, [6-Cyano-4-(5-ethanesulfonyl-pyridin-2-yloxy)-naphthalen-2-yl]-acetic acid] | 3.3 |
| CCS(=O)(=O)c1ccc(Oc2cc(CC(=O)O)cc3ccc(OC)cc23)nc1 [Example 1-21, [4-(5-Ethanesulfonyl-pyridin-2-yloxy)-6-methoxy-naphthalen-2-yl]-acetic acid] | 4.7 |
| CCS(=O)(=O)c1ccc(Oc2cc(CC(=O)O)cc3ccc(C)cc23)nc1 [Example 13-1, [4-(5-Ethanesulfonyl-pyridin-2-yloxy)-6-methyl-naphthalen-2-yl]-acetic acid] | 73.7 |
| CCS(=O)(=O)c1ccc(Oc2cc(CC(=O)O)cc3ccc(Br)cc23)nc1 [Example 12-1, [6-Bromo-4-(5-ethanesulfonyl-pyridin-2-yloxy)-naphthalen-2-yl]-acetic acid] | 5.3 |
| Cc1cc(Oc2c(C)c(CC(=O)O)cc3ccc(Cl)cc23)ccc1S(C)(=O)=O [Example 2-8, [6-chloro-4-(4-methanesulfonyl-3-methyl-phenoxy)-3-methyl-naphthalen-2-yl]-acetic acid] | 4.5 |
| CS(=O)(=O)c1ccc(Oc2cc(CC(=O)O)cc3ccc(Cl)cc23)cc1 [Example 1-3, [6-chloro-4-(4-methanesulfonyl-phenoxy)-naphthalen-2-yl]-acetic acid] | 8.5 |
| CC(C)S(=O)(=O)c1ccc(Oc2cc(CC(=O)O)cc3ccc(F)cc23)cc1 [Example 1-4, {6-fluoro-4-[4-(propane-2-sulfonyl)-phenoxy]-naphthalen-2-yl}-acetic acid] | 6.7 |
| CCS(=O)(=O)c1ccc(Oc2cc(CC(=O)O)c(F)c3ccc(F)cc23)nc1 [Example 4-2, [1,6-difluoro-4-(5-ethanesulfonyl-pyridin-2-yloxy)-naphthalen-2-yl]-acetic acid] | 21.3 |
| Cc1c(CC(=O)O)cc2ccc(F)cc2c1Oc1ccc(S(=O)(=O)c2ccccc2)cc1 [Example 2-28, [4-(4-benzenesulfonyl-phenoxy)-6-fluoro-3-methyl-naphthalen-2-yl]-acetic acid] | 5 |
| CCS(=O)(=O)c1ccc(Oc2c(C)c(C(C)C(=O)O)cc3ccc(F)cc23)nc1 (centres unmarked) [Example 22-1, 2-[4-(5-Ethanesulfonyl-pyridin-2-yloxy)-6-fluoro-3-methyl-naphthalen-2-yl]-propionic acid] | 378 |
| CCS(=O)(=O)c1ccc(Oc2c(C)c(CC(=O)O)cc3ccc(F)cc23)c(C)c1 [Example 2-10, [4-(4-ethanesulfonyl-2-methyl-phenoxy)-6-fluoro-3-methyl-naphthalen-2-yl]-acetic acid] | 7.3 |
| Cc1cc(S(C)(=O)=O)ccc1Oc1c(C)c(CC(=O)O)cc2ccc(F)cc12 [Example 2-3, [6-fluoro-4-(4-methanesulfonyl-2-methyl-phenoxy)-3-methyl-naphthalen-2-yl]-acetic acid] | 7.5 |

Further lines, results first:

| IC50 [nM] | Structure (SMILES) |
| --- | --- |
| 3 | Cc1c(CC(=O)O)cc2ccc(F)cc2c1Oc1ccc(S(C)(=O)=O)c(Cl)c1 [Example 2-11, [4-(3-chloro-4-methanesulfonyl-phenoxy)-6-fluoro-3-methyl-naphthalen-2-yl]-acetic acid] |
| 2.4 | CCS(=O)(=O)c1cc(Cl)c(Oc2c(C)c(CC(=O)O)cc3ccc(F)cc23)cc1F [Example 2-25, [4-(2-chloro-4-ethanesulfonyl-5-fluoro-phenoxy)-6-fluoro-3-methyl-naphthalen-2-yl]-acetic acid] |
| 3.3 | CCS(=O)(=O)c1ccc(Oc2cc(CC(=O)O)cc3ccc(F)cc23)c(C)c1 [Example 1-8, [4-(4-ethanesulfonyl-2-methyl-phenoxy)-6-fluoro-naphthalen-2-yl]-acetic acid] |
| 2.9 | Cc1c(CC(=O)O)cc2ccc(F)cc2c1Oc1ccc(S(=O)(=O)N2CCC(F)(F)CC2)cc1 [Example 2-42, {4-[4-(4,4-difluoro-piperidine-1-sulfonyl)-phenoxy]-6-fluoro-3-methyl-naphthalen-2-yl}-acetic acid] |
| 3.1 | CCS(=O)(=O)c1ccc(Oc2c(F)c(CC(=O)O)cc3ccc(F)cc23)nc1 [Example 5-1, [4-(5-ethanesulfonyl-pyridin-2-yloxy)-3,6-difluoro-naphthalen-2-yl]-acetic acid] |
| 2.3 | Cc1c(CC(=O)O)cc2ccc(F)cc2c1Oc1ccc(S(C)(=O)=O)cc1 [Example 2-2, [6-fluoro-4-(4-methanesulfonyl-phenoxy)-3-methyl-naphthalen-2-yl]-acetic acid] |
| 2.7 | CCS(=O)(=O)c1ccc(Oc2c(C)c(CC(=O)O)cc3ccc(F)cc23)nc1 [Example 2-33, [4-(5-ethanesulfonyl-pyridin-2-yloxy)-6-fluoro-3-methyl-naphthalen-2-yl]-acetic acid] |
| 2.6 | CCS(=O)(=O)c1ccc(Oc2cc(CC(=O)O)cc3ccc(OC(F)(F)F)cc23)nc1 [Example 1-18, [4-(5-Ethanesulfonyl-pyridin-2-yloxy)-6-trifluoromethoxy-naphthalen-2-yl]-acetic acid] |
| 2.6 | Cc1c(CC(=O)O)cc2ccc(F)cc2c1Nc1ccc(S(C)(=O)=O)cc1 [Example 8-2, [6-fluoro-4-(4-methanesulfonyl-phenylamino)-3-methyl-naphthalen-2-yl]-acetic acid] |
| 2.4 | CCS(=O)(=O)c1ccc(Oc2c(C)c(CC(=O)O)cc3ccc(F)cc23)c(F)c1 [Example 2-13, [4-(4-ethanesulfonyl-2-fluoro-phenoxy)-6-fluoro-3-methyl-naphthalen-2-yl]-acetic acid] |
| 2 | CCN(CC)S(=O)(=O)c1ccc(Oc2c(C)c(CC(=O)O)cc3ccc(F)cc23)cc1 [Example 2-39, [4-(4-diethylsulfamoyl-phenoxy)-6-fluoro-3-methyl-naphthalen-2-yl]-acetic acid] |
| 2.7 | COc1ccc(S(=O)(=O)c2ccc(Oc3c(C)c(CC(=O)O)cc4ccc(F)cc34)cc2)cc1 [Example 2-30, {6-fluoro-4-[4-(4-methoxy-benzenesulfonyl)-phenoxy]-3-methyl-naphthalen-2-yl}-acetic acid] |
